Assay results reported in patent US9108854B2, “Biocidal colloidal dispersions of silica particles with silver ions adsorbed thereon” (PREBONA AB, priority 2009, dated 2015).

System: fungi
Assay: Fungal growth on treated slices of French bread
Settings: slice brushed on all sides with 1000 ppm Ag; 3 days in warm and humid atmosphere, 20-35° C.
Experimental: Slices of French bread from a local baker were used as substrates for fungal growth. • 1. Bread slice was brushed on all sides with the sol containing 1000 ppm Ag • 2. […] Bread slice was untreated.
The bread slices on a dinner plate were put in a plastic bag, which in turn was placed in a glassed-in porch where the temperature varied between 20 and 35° C. over the day.

## silver nitrate [AgNO3 solution]
  resistance of bread slice to fungi attack: affords some protection
